Results published in ChEMBL document CHEMBL4152237, “Identification of novel β-lactams and pyrrolidinone derivatives as selective Histamine-3 receptor (H3R) modulators as possible anti-obesity agents” (Eur J Med Chem, 2018).
Active and inactive are the calls of the source. No rule for the calls is given here.

What was measured:
[1] = target: T1, 5-hydroxytryptamine receptor 2C (Homo sapiens) (UniProt P28335); assay: Agonist activity at human 5-HT2C expressed in HEK293 cells harboring luc2P/NFAT-RE plasmid at 10 uM after 6 to 8 hrs by luciferase reporter gene assay; assay type: functional, cell-based
T1 sequence (whole entry): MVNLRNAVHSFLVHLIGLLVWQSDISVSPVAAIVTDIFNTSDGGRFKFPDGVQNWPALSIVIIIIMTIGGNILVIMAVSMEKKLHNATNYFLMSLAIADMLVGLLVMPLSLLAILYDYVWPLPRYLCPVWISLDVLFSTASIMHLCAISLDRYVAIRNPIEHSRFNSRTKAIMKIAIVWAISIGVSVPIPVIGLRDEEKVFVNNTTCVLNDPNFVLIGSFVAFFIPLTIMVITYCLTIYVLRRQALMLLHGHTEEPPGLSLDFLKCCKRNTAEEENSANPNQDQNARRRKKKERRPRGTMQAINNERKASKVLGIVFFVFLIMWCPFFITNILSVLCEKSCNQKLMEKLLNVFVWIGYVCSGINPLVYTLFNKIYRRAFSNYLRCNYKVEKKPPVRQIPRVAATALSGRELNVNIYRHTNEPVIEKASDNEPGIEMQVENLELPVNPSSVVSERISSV

Histamine H3 receptor = Histamine H3 receptor (Homo sapiens, UniProt Q9Y5N1); assay: Agonist activity at human H3R expressed in HEK293 cells harboring glosensor-22F cAMP plasmid DNA assessed as inhibition of forskolin-stimulated cAMP accumulation at 10 uM preincubated with cells followed by forskolin addition measured after 10 mins by luminescence assay relative to control; assay type: functional, cell-based
Chain of Histamine H3 receptor (Q9Y5N1 whole entry): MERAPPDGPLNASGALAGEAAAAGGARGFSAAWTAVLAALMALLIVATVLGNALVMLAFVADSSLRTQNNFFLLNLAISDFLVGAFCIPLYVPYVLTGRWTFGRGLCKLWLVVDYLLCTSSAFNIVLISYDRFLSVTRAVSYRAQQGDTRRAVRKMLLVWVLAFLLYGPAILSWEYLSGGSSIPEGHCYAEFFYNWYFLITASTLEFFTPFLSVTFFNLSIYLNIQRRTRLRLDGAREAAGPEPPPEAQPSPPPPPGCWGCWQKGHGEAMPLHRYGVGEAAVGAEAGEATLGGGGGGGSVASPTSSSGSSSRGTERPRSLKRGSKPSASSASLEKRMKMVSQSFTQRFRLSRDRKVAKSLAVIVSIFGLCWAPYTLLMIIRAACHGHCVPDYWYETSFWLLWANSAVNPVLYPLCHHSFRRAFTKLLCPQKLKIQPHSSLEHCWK

O=C1C=C[C@]23C(c4ccccc4)=CC(=O)N2[C@H](c2cccc(Cl)c2)C(=O)N[C@@H]3C1
Activity [1]: inactive
inhibition (Histamine H3 receptor): inactive

COC1=CC2(C=C(OC)C1=O)C(c1ccccc1)=C(c1ccc(CO)cc1)C(=O)N2C(C(=O)NC1CCCCC1)c1ccc(OC)c(OC)c1OC (stereo unspecified)
Activity [1]: inactive
inhibition (Histamine H3 receptor): inactive

COc1ccc(N2C(=O)/C(=C\c3ccccc3)C2(C(=O)NC(C)(C)C)c2cc(F)cc(F)c2)cc1 (stereo unspecified)
Activity [1]: inactive

COc1ccc([C@@H]2C(=O)N[C@@H]3CC(=O)C=C[C@@]34C(c3ccccc3)=CC(=O)N24)cc1
Activity [1]: inactive
inhibition (Histamine H3 receptor): inactive

O=C1C=C[C@]23C(c4ccccc4)=CC(=O)N2[C@H](c2cccc(Br)c2)C(=O)N[C@@H]3C1
Activity [1]: inactive
inhibition (Histamine H3 receptor): inactive

O=C1C=C[C@]23C(c4ccccc4)=CC(=O)N2[C@H](c2cccc([N+](=O)[O-])c2)C(=O)N[C@@H]3C1
Activity [1]: inactive
inhibition (Histamine H3 receptor): inactive

COc1ccc(C(C(=O)NC2CCCCC2)N2C(=O)C=C(c3ccccc3)C23C=CC(=O)C=C3)cc1C (stereo unspecified)
Activity [1]: inactive
inhibition (Histamine H3 receptor): inactive

COc1ccc(C(C(=O)NC(C)(C)C)N2C(=O)C(I)=C(c3ccccc3)C23C=CC(=O)C=C3)cc1 (stereo unspecified)
Activity [1]: inactive
inhibition (Histamine H3 receptor): inactive

COc1ccc(N2C(=O)/C(=C\c3ccccc3)C2(C(=O)NC(C)(C)C)c2ccc(C(F)(F)F)cc2)cc1 (stereo unspecified)
Activity [1]: inactive
inhibition (Histamine H3 receptor): inactive

O=C1C=C[C@]23C(c4ccccc4)=CC(=O)N2[C@H](c2ccc(Cl)c(F)c2)C(=O)N[C@@H]3C1
Activity [1]: inactive
inhibition (Histamine H3 receptor): inactive

COc1cc(NC2(c3cc(F)cc(F)c3)C(=O)N(C3CCCCC3)C(=O)/C2=C/c2ccccc2)cc(OC)c1OC (stereo unspecified)
Activity [1]: inactive
inhibition (Histamine H3 receptor): inactive

CC(C)(C)NC(=O)C(c1cccc(Cl)c1)N1C(=O)C(I)=C(c2ccccc2)C12C=CC(=O)C=C2 (stereo unspecified)
Activity [1]: inactive
inhibition (Histamine H3 receptor): inactive

COc1ccc(N2C(=O)/C(=C\c3ccccc3)C2(C(=O)NC(C)(C)C)c2ccc(Br)cc2)cc1 (stereo unspecified)
Activity [1]: inactive
inhibition (Histamine H3 receptor): inactive

CC(C)(C)NC(=O)C(c1ccccc1Br)N1C(=O)C(I)=C(c2ccccc2)C12C=CC(=O)C=C2 (stereo unspecified)
Activity [1]: inactive
inhibition (Histamine H3 receptor): inactive

O=C1C=C[C@]23C(c4ccccc4)=CC(=O)N2[C@H](c2ccccc2)C(=O)N[C@@H]3C1
Activity [1]: inactive
inhibition (Histamine H3 receptor): inactive

COc1ccc(NC2(c3ccc(F)cc3)C(=O)N(C3CCCCC3)C(=O)/C2=C/c2ccccc2)cc1OC (stereo unspecified)
Activity [1]: inactive
inhibition (Histamine H3 receptor): inactive

Cc1ccccc1C(C(=O)NC(C)(C)C)N1C(=O)C(I)=C(c2ccccc2)C12C=CC(=O)C=C2 (stereo unspecified)
Activity [1]: inactive
inhibition (Histamine H3 receptor): inactive

COC1=CC2(C=C(OC)C1=O)C(c1ccccc1)=C(I)C(=O)N2C(C(=O)NC1CCCCC1)c1ccc(OC)c(OC)c1OC (stereo unspecified)
Activity [1]: inactive
inhibition (Histamine H3 receptor): inactive

COc1cc(N2C(=O)C(=Cc3ccccc3)C2(C(=O)NC(C)(C)C)c2cc(C)cc(C)c2)cc(OC)c1OC (stereo unspecified)
Activity [1]: inactive
inhibition (Histamine H3 receptor): inactive

COc1ccc(N2C(=O)C(=Cc3ccccc3)C2(C(=O)NC(C)(C)C)c2ccccc2)cc1 (stereo unspecified)
Activity [1]: inactive
inhibition (Histamine H3 receptor): inactive

COc1ccc(C(C(=O)NC2CCCCC2)N2C(=O)C(I)=C(c3ccccc3)C23C=CC(=O)C=C3)cc1C (stereo unspecified)
Activity [1]: inactive
inhibition (Histamine H3 receptor): inactive

Cc1ccc([C@@H]2C(=O)N[C@@H]3CC(=O)C=C[C@@]34C(c3ccccc3)=CC(=O)N24)cc1
Activity [1]: inactive
inhibition (Histamine H3 receptor): inactive

COc1ccc(N2C(=O)C(=Cc3ccccc3)C2(C(=O)NC(C)(C)C)c2ccc(OC)cc2)cc1 (stereo unspecified)
Activity [1]: inactive
inhibition (Histamine H3 receptor): inactive

COc1ccc(N2C(=O)/C(=C\c3ccccc3)C2(C(=O)NC(C)(C)C)c2cccc(Cl)c2)cc1 (stereo unspecified)
Activity [1]: inactive
inhibition (Histamine H3 receptor): inactive

O=C1C=C[C@]23C(c4ccccc4)=CC(=O)N2[C@H](c2ccc(OC(F)(F)F)cc2)C(=O)N[C@@H]3C1
Activity [1]: inactive
inhibition (Histamine H3 receptor): inactive

COc1ccc(C2=C(c3ccccc3)C3(C=CC(=O)C=C3)N(C(C(=O)NC3CCCCC3)c3ccc(OC)c(C)c3)C2=O)cc1 (stereo unspecified)
Activity [1]: inactive
inhibition (Histamine H3 receptor): inactive

COc1ccc(NC2(c3ccc(Cl)c(F)c3)C(=O)N(C(C)(C)C)C(=O)/C2=C/c2ccccc2)cc1 (stereo unspecified)
Activity [1]: inactive
inhibition (Histamine H3 receptor): inactive

N#Cc1ccc([C@@H]2C(=O)N[C@@H]3CC(=O)C=C[C@@]34C(c3ccccc3)=CC(=O)N24)cc1
Activity [1]: inactive

O=C1C=CC2(C=C1)C(c1ccccc1)=C(I)C(=O)N2C(C(=O)NC1CCCCC1)c1cc2c(cc1Br)OCO2 (stereo unspecified)
Activity [1]: inactive
inhibition (Histamine H3 receptor): inactive

COC1=CC2(C=C(OC)C1=O)C(c1ccccc1)=C(I)C(=O)N2C(C(=O)NC1CCCCC1)c1cc(OC)c(OC)c(OC)c1 (stereo unspecified)
Activity [1]: inactive
inhibition (Histamine H3 receptor): inactive

CC(C)(C)NC(=O)C(c1ccc(C#N)cc1)N1C(=O)C(I)=C(c2ccccc2)C12C=CC(=O)C=C2 (stereo unspecified)
Activity [1]: inactive
inhibition (Histamine H3 receptor): inactive

COc1ccc(C2=C(c3ccccc3)C3(C=CC(=O)C=C3)N(C(C(=O)NC(C)(C)C)c3ccccc3C)C2=O)cc1 (stereo unspecified)
Activity [1]: inactive
inhibition (Histamine H3 receptor): inactive

Cc1cc(C)cc([C@@H]2C(=O)N[C@@H]3CC(=O)C=C[C@@]34C(c3ccccc3)=CC(=O)N24)c1
Activity [1]: inactive
inhibition (Histamine H3 receptor): inactive

COc1ccc(C2(Nc3cc(OC)c(OC)c(OC)c3)C(=O)N(C3CCCCC3)C(=O)/C2=C/c2ccccc2)cc1 (stereo unspecified)
Activity [1]: inactive
inhibition (Histamine H3 receptor): inactive

COc1ccc(N2C(=O)C(=Cc3ccccc3)C2(C(=O)NC2CCCCC2)c2ccccc2)cc1OC (stereo unspecified)
Activity [1]: inactive
inhibition (Histamine H3 receptor): inactive

COc1ccc(N2C(=O)/C(=C\c3ccccc3)C2(C(=O)NC2CCCCC2)c2cc(F)cc(F)c2)cc1OC (stereo unspecified)
Activity [1]: inactive
inhibition (Histamine H3 receptor): inactive

O=C1C=CC2(C=C1)C(c1ccccc1)=C(I)C(=O)N2C(C(=O)NC1CCCCC1)c1ccccc1Br (stereo unspecified)
Activity [1]: inactive
inhibition (Histamine H3 receptor): inactive

COc1ccc(NC2(c3cc(F)cc(F)c3)C(=O)N(C(C)(C)C)C(=O)/C2=C/c2ccccc2)cc1 (stereo unspecified)
Activity [1]: inactive
inhibition (Histamine H3 receptor): inactive

CC(C)(C)NC(=O)C(c1cc2c(cc1Br)OCO2)N1C(=O)C(I)=C(c2ccccc2)C12C=CC(=O)C=C2 (stereo unspecified)
Activity [1]: inactive
inhibition (Histamine H3 receptor): inactive

COc1cc(N2C(=O)C(=Cc3ccccc3)C2(C(=O)NC(C)(C)C)c2ccc(Br)cc2)cc(OC)c1OC (stereo unspecified)
Activity [1]: inactive
inhibition (Histamine H3 receptor): inactive

COc1ccc(C(C(=O)NC(C)(C)C)N2C(=O)C(I)=C(c3ccccc3)C23C=CC(=O)C=C3)cc1C (stereo unspecified)
Activity [1]: inactive
inhibition (Histamine H3 receptor): inactive

COc1ccc(C(C(=O)NC2CCCCC2)N2C(=O)C(I)=C(c3ccccc3)C23C=CC(=O)C=C3)cc1 (stereo unspecified)
Activity [1]: inactive
inhibition (Histamine H3 receptor): inactive

CN(C)c1ccc([C@@H]2C(=O)N[C@@H]3CC(=O)C=C[C@@]34C(c3ccccc3)=CC(=O)N24)cc1
Activity [1]: inactive
inhibition (Histamine H3 receptor): inactive

COC1=CC2(C=C(OC)C1=O)C(c1ccccc1)=C(I)C(=O)N2C(C(=O)NC1CCCCC1)c1cccc([N+](=O)[O-])c1 (stereo unspecified)
Activity [1]: inactive
inhibition (Histamine H3 receptor): inactive

O=C1C=C[C@]23C(c4ccccc4)=CC(=O)N2[C@H](c2cc(F)c(F)c(F)c2)C(=O)N[C@@H]3C1
Activity [1]: inactive
inhibition (Histamine H3 receptor): inactive

CC(C)(C)NC(=O)C(c1ccccc1[N+](=O)O)N1C(=O)C(I)=C(c2ccccc2)C12C=CC(=O)C=C2 (stereo unspecified)
Activity [1]: inactive
inhibition (Histamine H3 receptor): inactive

COc1ccc(NC2(c3ccc(Cl)c(F)c3)C(=O)N(C3CCCCC3)C(=O)/C2=C/c2ccccc2)cc1OC (stereo unspecified)
Activity [1]: inactive
inhibition (Histamine H3 receptor): inactive

COc1cc(NC2(c3ccc(Cl)c(F)c3)C(=O)N(C(C)(C)C)C(=O)/C2=C/c2ccccc2)cc(OC)c1OC (stereo unspecified)
Activity [1]: inactive
inhibition (Histamine H3 receptor): inactive

O=C1C=C[C@]23C(c4ccccc4)=CC(=O)N2[C@H](c2ccc(F)cc2)C(=O)N[C@@H]3C1
Activity [1]: inactive
inhibition (Histamine H3 receptor): inactive

COC1=CC2(C=C(OC)C1=O)C(c1ccccc1)=C(c1ccc(OC)c(OC)c1OC)C(=O)N2C(C(=O)NC1CCCCC1)c1cc(OC)c(OC)c(OC)c1 (stereo unspecified)
Activity [1]: inactive
inhibition (Histamine H3 receptor): inactive

COc1ccc(NC2(c3cc(C)cc(C)c3)C(=O)N(C(C)(C)C)C(=O)/C2=C/c2ccccc2)cc1 (stereo unspecified)
Activity [1]: inactive
inhibition (Histamine H3 receptor): inactive

COc1ccc(N2C(=O)/C(=C\c3ccccc3)C2(C(=O)NC(C)(C)C)c2cc(C)cc(C)c2)cc1 (stereo unspecified)
Activity [1]: inactive
inhibition (Histamine H3 receptor): inactive

O=C1C=CC2(C=C1)C(c1ccccc1)=C(I)C(=O)N2C(C(=O)NC1CCCCC1)c1ccc(Cl)cc1 (stereo unspecified)
Activity [1]: inactive
inhibition (Histamine H3 receptor): inactive

O=C1C=CC2(C=C1)C(c1ccccc1)=C(I)C(=O)N2C(C(=O)NC1CCCCC1)c1ccccc1[N+](=O)[O-] (stereo unspecified)
Activity [1]: inactive
inhibition (Histamine H3 receptor): inactive
